The pKa is the pH at which an ionisable group is half protonated.

For the setting “basic group”, `CC[NH+](CC)CCNc1cc(C)nc(N)n1` came in with a pKa of 7.6.
For the molecule `NC(Cc1n[nH]c2ccccc12)C(=O)[O-]` (stereo not given), where the note is “basic group”, the pKa stood at 8.95.
On the same count and under the same terms, next, `C=C(C)[C@H]1CN[C@H](C(=O)[O-])[C@H]1CC(=O)OC`: 9.52.
Molecule `O=C(O)C1=C/C=C\C=C/C=C\1` registered a pKa (acidic group) of 4.4.
`Cc1cccnn1` registered a pKa (basic group) of 3.46.
Turning to `C[C@@H]1CCCC[C@@H]1C(=O)O`, under “acidic group”, the pKa turned out to be 5.04.
As for `O=C1C=CC(=Nc2ccc(O)cc2)C=C1`, the pKa (acidic group) came to 8.1.
Molecule `CNC(=O)c1ccccn1` showed a pKa (basic group) of 2.4.
In turn, `C=CCc1c(C)nn(C)c1O` gave a pKa (acidic group) of 10.5.
Same read-out and setting: then `Oc1cncc2cccnc12`, with 8.33.
`CN(CO)c1ccc(Cl)cc1` displayed a pKa (basic group) of 3.02.
`COc1csc(C(=O)O)c1` yielded a pKa (acidic group) of 3.41.
In turn, `NCC(=O)CN` gave a pKa (basic group) of 8.32.
Molecule `CN(C)c1ccc(C2=CN3CCC2CC3)cc1` gave a pKa (basic group) of 9.82.
On to `COc1cc2c(O)cc(C)[nH+]c2c2c(C)c(C)oc12`, for which the pKa (acidic group) was 2.91.
Take `CNCCCCc1ccccc1`: the pKa (basic group) is 10.8.
Molecule `[NH3+]C(Cc1cnc[nH]1)C(=O)NCC(=O)[O-]` (stereo not given) showed a pKa (basic group) of 6.67.
Take `c1ccc2c(c1)CNCCCNCc1ccccc1OCCCO2`: the pKa (basic group) was 10.
Regarding `CC(C)S(=O)O`, the pKa (acidic group) was 2.3.
Where the note is “basic group”, `Clc1nc2cc3c(cc2[nH]1)CCCC3` registered a pKa of 2.68.
In the case of `COc1cccnc1C(O)O`, for the setting “acidic group”, the pKa worked out at 12.9.
With `CCCCCOc1ccc(O)cc1`, where the note is “acidic group”, the pKa was determined as 10.2.
`NCC(F)F` yielded a pKa (basic group) of 7.09.
`O=C([O-])c1ccccn1` returned a pKa (basic group) of 5.32.
The molecule `CCCCNCC/C(N)=N/O` yielded a pKa (basic group) of 9.6.
`OC[C@@H]1O[C@H]([n+]2ccc(NO)nc2O)[C@@H](O)[C@H]1O` displayed a pKa (acidic group) of 2.26.
`COCc1nc2c(n1C)C(=O)c1ncnc([O-])c1C2=O` gave a pKa (basic group) of 6.17.
`[NH3+]CCS` gave a pKa (acidic group) of 8.4.
The molecule `O=c1oc2c(O)c(O)cc3c(=O)oc4c(O)c(O)cc1c4c23` yielded a pKa (acidic group) of 6.59.
For the setting “basic group”, `COc1ccc(CN)cc1N` showed a pKa of 9.77.
On to `NC(=O)c1ccccc1C(=O)O`, for which the pKa (acidic group) came to 3.75.
On to `CCOCCn1c(CN2CC[NH+](CCCCn3cc(C(=O)O)cn3)CC2)nc2ccccc21`, for which, where the note is “basic group”, the pKa worked out at 4.9.
Where the note is “basic group”, `CCN(CC)CCSC(C)C` returned a pKa of 9.32.
With `CC1=CCN2CC[C@@H](O)[C@@H]12`, under “basic group”, the pKa worked out at 9.6.
Still for that read-out and setting: then `Nc1ccc2nnc3ccccc3c2c1`, with 6.68.
The molecule `CC1CCN(O)C1(C)C` (stereo not given) registered a pKa (basic group) of 5.9.
As to `C=C=C(C)C(C)(C)C(=O)O`, the pKa (acidic group) was found to be 4.55.
Same read-out and setting: then `C[NH+]1C[C@H](C(=O)O)C[C@@]2(O)c3cccc4[nH]cc(c34)C[C@@H]12`, with 3.42.
The molecule `Cc1ccc2c(c1)ncn2[C@H]1O[C@@H](CO)[C@H](O)[C@@H](O)[C@@H]1O` gave a pKa (basic group) of 4.32.
In turn, `CNCC(C)c1ccccc1` (stereo not given) showed a pKa (basic group) of 9.87.
As for `COc1ccc(-c2ncc(-c3ccc([NH3+])cc3)o2)cc1`, the pKa (basic group) is 0.85.
The same measure, in the same setting: then `COc1cccc(CN)c1OC`, with 9.41; and `CC[C@H]1CN2CCc3cc(OC)c(OC)cc3[C@@H]2C[C@@H]1CC=O`, with 8.11.
With `CC(C)(C(N)=O)S(=O)(=O)NC(N)=O`, the pKa (acidic group) worked out at 5.15.
On to `CCCOC(=S)NC(C)=O`, for which, where the note is “acidic group”, the pKa came out at 9.34.
In turn, `Cc1cc(O)ccc1/N=N/c1ccc2c(c1)Cc1ccccc1-2` came in with a pKa (acidic group) of 10.3.
Molecule `Clc1ncnc2nc[nH]c12` had a pKa (acidic group) of 7.75.
The molecule `[O-]c1cc[n+]([C@H]2O[C@@H](CO)[C@H](O)[C@H]2O)c([O-])n1` gave a pKa (basic group) of 9.3.
Molecule `CCCCCC(=O)CC(C)=O` had a pKa (acidic group) of 9.2.
For the molecule `CC1=CN(C)CC1C` (stereo not given), the pKa (basic group) turned out to be 9.6.
Still for that read-out and setting: then `C=CCN(CC1CO1)CC1CO1` (stereo not given), with 6.16.
Take `[O-]c1ccc(O)cc1Cl`: the pKa (acidic group) stood at 10.8.
Still for that read-out and setting: then `O=[N+]([O-])c1ccc(O)c(C[NH+]2CCCCC2)c1`, with 5.88.
Molecule `C=C(C)C(=O)OCCN(C(C)C)C(C)C` gave a pKa (basic group) of 8.77.
For `Cc1cc(N)nc2ccc3ccccc3c12`, the pKa (basic group) was determined as 7.14.
In the case of `CCNCC(=O)Nc1c(C)cccc1C`, the pKa (basic group) turned out to be 8.06.
For `C[n+]1ccc(C(=O)O)cc1`, the pKa (acidic group) is 1.72.
In the case of `C[N+](C)(C)Cc1cccc(O)c1`, the pKa (acidic group) came to 8.89.
On to `C[NH+](C)CCCCNc1ccnc2cccc([N+](=O)[O-])c12`, for which the pKa (basic group) was 6.71.
In the case of `CC1(C(=O)O)CCCCC1`, the pKa (acidic group) was determined as 5.13.
Molecule `N#CC(C(=O)O)c1ccccc1` (stereo not given) returned a pKa (acidic group) of 1.77.
For `Oc1cccc2c1CCCC2`, where the note is “acidic group”, the pKa worked out at 10.5.
On to `COc1ccc(-c2c(O)c2=O)cc1`, for which the pKa (acidic group) was 2.33.
In turn, `NNC(=O)[C@H](Cc1c[nH]cn1)NC(=O)OCc1ccccc1` registered a pKa (basic group) of 6.1.
Consider `CC(C)(C)C1=CC(=C2C=CC=CC=C2)C=C(C(C)(C)C)C1=O`, for which, under “basic group”, the pKa is 4.48.
The molecule `C[C@H](O)[C@H]1CC[C@H]2[C@@H]3CC[C@H]4C[C@H](N)CC[C@]4(C)[C@H]3CC[C@]12C` displayed a pKa (basic group) of 9.28.
The same measure, in the same setting: next, `Nc1ccncc1Br`: 7.15; `C[C@@H](N)C(=O)N1CCC[C@H]1C(=O)[O-]`: 8.38; `[O-]c1ccnnc1`: 8.68.
As to `N#Cc1cccc(O)c1`, under “acidic group”, the pKa is 8.63.

(Values after the pKa sets of Baltruschat and Czodrowski (2020).)
